Experimental data reported in patent publication US11253497B2, “Use of derivatives of polyunsaturated fatty acids as medicaments” (Lipopharma Therapeutics, S.L., priority 2009, dated 2022).

Assays:
[1] = system: Spontaneously Hypertensive Rats (SHR); experiment: Blood pressure of SHR rats (cuff-tail method); type: in vivo, rat; conditions: 200 mg/kg day p.o., 30 days, before treatment 214 mmHg
Experimental: (§1) In a separate experimental series, it was studied the effect of D-PUFA molecules of the present invention on blood pressure of SHR rats. In these animals both, blood pressure and levels of apolipoprotein AI (apoA-I) were measured. For these experiments Spontaneously Hypertensive Rats (SHR) were treated for 30 days with vehicle (water control) or compounds of the invention (200 mg/kg day, p.o.). At the end of this period, the animals' blood pressure and serum levels of apoA-I were measured. […] For these experiments, non-invasive methods for determining blood pressure (cuff-tail method) and gene expression for apoA-I (RT-PCR) described in the literature (Terés et al., 2008) were used. The usefulness of the molecules of the present invention for the treatment of cardiovascular diseases is reinforced by its capacity for reducing the levels of serum cholesterol and triglycerides (see below).
(§2) The average values of SHR before treatment were 214 mmHg and 100% respectively.

lung cancer cells A549 = experiment: Growth of lung cancer cells A549 (IC50); type: cell-based, human; conditions: 72 hours of incubation
Experimental: (§3) For the experiments shown in FIG. 1, cultured human Non Small Cell Lung Cancer cells (A549) in RPMI 1640 were used, supplemented with 10% foetal bovine serum and antibiotics, at 37° C. and 5% CO2. […] After treatment, cell count was performed and the study of the mechanisms involved in the antitumor activity of compounds was evaluated by flow cytometry. […] These values correspond to averages of three independent experiments.
(§4) These charts show the antitumor efficacy of the compounds of this invention against the growth of breast cancer cells, brain (glioma), and lung cancer. […] The other experimental conditions are identical to those described in the preceding paragraph.

[2] = system: brain cancer cell (glioma) U118; experiment: Brain cancer (glioma) U118 cell growth; type: cell-based; conditions: 72 hours of incubation
Experimental: For the experiments shown in FIG. 1, cultured human Non Small Cell Lung Cancer cells (A549) in RPMI 1640 were used, supplemented with 10% foetal bovine serum and antibiotics, at 37° C. and 5% CO2. Cells were maintained in culture for 48 hours in the presence or absence of D-PUFAs and PUFAs indicated in Table 2 at a concentration of 250 µM. After treatment, cell count was performed and the study of the mechanisms involved in the antitumor activity of compounds was evaluated by flow cytometry. […] These values correspond to averages of three independent experiments.
as §4

[3] = system: breast cancer cells MDA-MB-231; experiment: Growth of breast cancer cells MDA-MB-231; type: cell-based; conditions: 72 hours of incubation
Experimental: as §3, §4

[4] = system: apolipoprotein AI (apoA-I); experiment: Levels of apoA-I in SHR rats (RT-PCR); type: in vivo, rat; conditions: 200 mg/kg day p.o., 30 days, before treatment 100%
Experimental: as §1, §2

[5] = Lamellar-to-hexagonal (HII) transition temperature in DEPE model membranes by Differential Scanning Calorimetry; type: physicochemical; conditions: DEPE membranes, DEPE:D-PUFA 10:1 (mol:mol)
Experimental: The transition temperature was determined by Differential Scanning Calorimetry. The proportion DEPE:D-PUFA was 10:1 (mol:mol) in all cases. Lamellar-to-hexagonal transition is an important parameter that reflects relevant signalling properties of cell membranes. […] When this occurs, certain peripheral membrane proteins (such as G proteins, protein kinase C or Ras protein) can more easily bind to the membrane, while others have a poor interaction (e.g., the Gα-protein), so changes in the HII transition temperature are important in regulating cellular functions related to health and human therapy (Escriba et al., 1995, Vogler et al., 2004; Escriba, 2006).
Control values correspond to model membranes in the absence of fatty acids. The reduction in HII transition temperature obtained by using the D-PUFA of the invention indicates an increased induction of membrane discontinuities, generating anchoring sites in the membrane for peripheral proteins and leads to better regulation of cell signalling and, therefore, greater effectiveness in the control of certain diseases.

CCC=CCC=CCC=CCC=CCC=CCC=CCC(CO)C(=O)O (centres unmarked) [226P1]
Blood pressure [1]: 193 mm Hg
IC50 (lung cancer cells A549): 291 µM
IC50 [2]: 290 µM
IC50 [3]: 250 µM
Levels of apoA-I [4]: 382%

CCCCCC=CCC=CCCCCCCC(CO)C(=O)O (centres unmarked) [182P1]
Blood pressure [1]: 202 mm Hg
IC50 (lung cancer cells A549): 328 µM
IC50 [3]: 419 µM
Levels of apoA-I [4]: 184%

CCCCCC=CCC=CCC=CCCCC(CO)C(=O)O (centres unmarked) [183P2]
Blood pressure [1]: 187 mm Hg
IC50 (lung cancer cells A549): 272 µM
IC50 [2]: 389 µM
IC50 [3]: 214 µM
Levels of apoA-I [4]: 347%

CCC=CCC=CCC=CCCCCCCC(OC)C(=O)O (centres unmarked) [183G1]
Temperature of lamellar-to-hexagonal transition [5]: 50.3 °C
IC50 (lung cancer cells A549): 273 µM
IC50 [2]: 329 µM
IC50 [3]: 364 µM

CCC=CCC=CCC=CCC=CCC=CCC=CCC(O)C(=O)OCC (centres unmarked) [226E1]
Temperature of lamellar-to-hexagonal transition [5]: 42.9 °C
IC50 (lung cancer cells A549): 209 µM
IC50 [2]: 265 µM
IC50 [3]: 207 µM

CCC=CCC=CCC=CCCCCCCC(O)C(=O)OC (centres unmarked) [183D1]
Temperature of lamellar-to-hexagonal transition [5]: 51.1 °C
IC50 (lung cancer cells A549): 326 µM
IC50 [3]: 245 µM

CCC=CCC=CCC=CCC=CCC=CCC=CCC(O)C(=O)OC (centres unmarked) [226D1]
Temperature of lamellar-to-hexagonal transition [5]: 43.9 °C
IC50 (lung cancer cells A549): 221 µM
IC50 [2]: 241 µM
IC50 [3]: 224 µM

CCCCCC=CCC=CCCCCCCC(O)C(=O)OCC (centres unmarked) [182E1]
Temperature of lamellar-to-hexagonal transition [5]: 50.6 °C
IC50 (lung cancer cells A549): 387 µM
IC50 [2]: 213 µM
IC50 [3]: 289 µM

CCCCCC=CCC=CCC=CCC=CCCC(O)C(=O)OC (centres unmarked) [204D1]
Temperature of lamellar-to-hexagonal transition [5]: 48.7 °C
IC50 (lung cancer cells A549): 372 µM
IC50 [2]: 311 µM
IC50 [3]: 281 µM

CCCCCC=CCC=CCC=CCC=CCCC(CO)C(=O)O (centres unmarked) [204P1]
Blood pressure [1]: 203 mm Hg
IC50 (lung cancer cells A549): 387 µM
IC50 [2]: 291 µM
IC50 [3]: 370 µM
Levels of apoA-I [4]: 153%

CCCCCC=CCC=CCCCCCCC(OP(=O)(OCC)OCC)C(=O)OCC (centres unmarked) [182R1]
Temperature of lamellar-to-hexagonal transition [5]: 52.2 °C
IC50 (lung cancer cells A549): 317 µM
IC50 [2]: 255 µM
IC50 [3]: 371 µM

CCCCCC=CCC=CCC=CCC=CCCC(Cl)C(=O)OCC (centres unmarked) [204O1]
Temperature of lamellar-to-hexagonal transition [5]: 49.7 °C
IC50 (lung cancer cells A549): 461 µM
IC50 [3]: 298 µM

CCCCCC=CCC=CCC=CCCCC(OC)C(=O)O (centres unmarked) [183G2]
Temperature of lamellar-to-hexagonal transition [5]: 50.1 °C
IC50 (lung cancer cells A549): 295 µM
IC50 [2]: 394 µM
IC50 [3]: 159 µM

CCCCCC=CCC=CCCCCCCC(O)C(=O)OC (centres unmarked) [182D1]
Temperature of lamellar-to-hexagonal transition [5]: 51 °C
IC50 (lung cancer cells A549): 541 µM
IC50 [2]: 221 µM
IC50 [3]: 277 µM

CCC=CCC=CCC=CCCCCCCC(Cl)C(=O)OCC (centres unmarked) [183O1]
Temperature of lamellar-to-hexagonal transition [5]: 51.2 °C
IC50 (lung cancer cells A549): 344 µM
IC50 [2]: 370 µM
IC50 [3]: 267 µM

CCCCCC=CCC=CCC=CCCCC(O)C(=O)OC (centres unmarked) [183D2]
Temperature of lamellar-to-hexagonal transition [5]: 49.4 °C
IC50 (lung cancer cells A549): 267 µM
IC50 [2]: 385 µM
IC50 [3]: 175 µM

CCCCCC=CCC=CCC=CCCCC(O)C(=O)OCC (centres unmarked) [183E2]
Temperature of lamellar-to-hexagonal transition [5]: 49.3 °C
IC50 (lung cancer cells A549): 243 µM
IC50 [3]: 193 µM

CCCCCC=CCC=CCCCCCCC(OC)C(=O)O (centres unmarked) [182G1]
Temperature of lamellar-to-hexagonal transition [5]: 51 °C
IC50 (lung cancer cells A549): 439 µM
IC50 [2]: 205 µM
IC50 [3]: 378 µM

CCC=CCC=CCC=CCCCCCCC(OP(=O)(OCC)OCC)C(=O)OCC (centres unmarked) [183R1]
Temperature of lamellar-to-hexagonal transition [5]: 51.8 °C
IC50 (lung cancer cells A549): 258 µM
IC50 [2]: 307 µM
IC50 [3]: 305 µM

CCC=CCC=CCC=CCC=CCC=CCCC(OP(=O)(OCC)OCC)C(=O)OCC (centres unmarked) [205R1]
Temperature of lamellar-to-hexagonal transition [5]: 48.4 °C
IC50 (lung cancer cells A549): 417 µM
IC50 [2]: 468 µM
IC50 [3]: 245 µM

CCC=CCC=CCC=CCCCCCCC(O)C(=O)OCC (centres unmarked) [183E1]
Temperature of lamellar-to-hexagonal transition [5]: 49.8 °C
IC50 (lung cancer cells A549): 294 µM
IC50 [3]: 319 µM

CCC=CCC=CCC=CCC=CCC=CCCC(OC)C(=O)O (centres unmarked) [205G1]
Temperature of lamellar-to-hexagonal transition [5]: 47.3 °C
IC50 (lung cancer cells A549): 407 µM
IC50 [2]: 426 µM
IC50 [3]: 219 µM

CCC=CCC=CCC=CCC=CCC=CCCC(O)C(=O)OCC (centres unmarked) [205E1]
Temperature of lamellar-to-hexagonal transition [5]: 46.7 °C
IC50 (lung cancer cells A549): 413 µM
IC50 [2]: 513 µM
IC50 [3]: 284 µM

CCC=CCC=CCC=CCC=CCC=CCCC(CO)C(=O)O (centres unmarked) [205P1]
Blood pressure [1]: 194 mm Hg
IC50 (lung cancer cells A549): 339 µM
IC50 [2]: 432 µM
IC50 [3]: 301 µM
Levels of apoA-I [4]: 337%

CCC=CCC=CCC=CCC=CCC=CCCC(O)C(=O)OC (centres unmarked) [205D1]
Temperature of lamellar-to-hexagonal transition [5]: 47.5 °C
IC50 (lung cancer cells A549): 364 µM
IC50 [2]: 467 µM
IC50 [3]: 2 µM

CCC=CCC=CCC=CCC=CCC=CCC=CCC(OC)C(=O)O (centres unmarked) [226G1]
Temperature of lamellar-to-hexagonal transition [5]: 44.1 °C
IC50 (lung cancer cells A549): 273 µM
IC50 [2]: 278 µM
IC50 [3]: 213 µM

CCC=CCC=CCC=CCCCCCCC(CO)C(=O)O (centres unmarked) [183P1]
Blood pressure [1]: 201 mm Hg
IC50 (lung cancer cells A549): 317 µM
IC50 [2]: 285 µM
IC50 [3]: 349 µM
Levels of apoA-I [4]: 178%

CCCCCC=CCC=CCC=CCCCC(OP(=O)(OCC)OCC)C(=O)OCC (centres unmarked) [183R2]
Temperature of lamellar-to-hexagonal transition [5]: 49.9 °C
IC50 (lung cancer cells A549): 274 µM
IC50 [2]: 454 µM
IC50 [3]: 172 µM

CCCCCC=CCC=CCC=CCC=CCCC(OC)C(=O)O (centres unmarked) [204G1]
Temperature of lamellar-to-hexagonal transition [5]: 49.6 °C
IC50 (lung cancer cells A549): 427 µM
IC50 [2]: 342 µM
IC50 [3]: 372 µM

CCC=CCC=CCC=CCC=CCC=CCCC(Cl)C(=O)OCC (centres unmarked) [205O1]
Temperature of lamellar-to-hexagonal transition [5]: 48.6 °C
IC50 (lung cancer cells A549): 418 µM
IC50 [3]: 264 µM

CCCCCC=CCC=CCC=CCC=CCCC(OP(=O)(OCC)OCC)C(=O)OCC (centres unmarked) [204R1]
Temperature of lamellar-to-hexagonal transition [5]: 50 °C
IC50 (lung cancer cells A549): 364 µM
IC50 [2]: 501 µM
IC50 [3]: 285 µM

CCCCCC=CCC=CCC=CCC=CCCC(O)C(=O)OCC (centres unmarked) [204E1]
Temperature of lamellar-to-hexagonal transition [5]: 48.4 °C
IC50 (lung cancer cells A549): 475 µM
IC50 [2]: 224 µM
IC50 [3]: 299 µM
